# Reference: patent publication US20030204875A1, “Novel agrobacterium-mediated plant transformation method” (priority 1999, published 2003)
# Tested on: Agrobacterium (strain ABI)
# Experiment: not given
# Format: cell-based
# Design: key: “No Growth” indicates there was not an increase in cell density indicating bacteriocidal or bacteriostatic property of the chemical; “Slow Growth” indicates that a slight increase in cell density was noticed and a higher level may be lethal; “Growth” indicates no effect on bacterial growth at the concentration used relative to growth in control medium
# Settings: control, final concentration 50 mg/L; twenty-four hours
# Description: Each of the chemicals listed in Table 26 was resuspended in MS-BMS media and added (final concentration 50 μM) to a 50 ml overnight culture of Agrobacterium (strain ABI). Twenty-four hours after inoculation the effect of the chemicals on the growth of Agrobacterium was recorded. A known bacteriocidal compound, Carbenicillin at a final concentration of 50 mg/L and AgNO3 (20 μM) were used as controls.
row,Compound,Effect (on growth of Agrobacterium)
1,"CC1(C)S[C@@H]2[C@H](NC(=O)C(C(=O)O)c3ccccc3)C(=O)N2[C@H]1C(=O)O (some centres unmarked) [Carbenicillin, reference compound]",No Growth

# Same assay, conditions: final concentration 50 μM in MS-BMS media; twenty-four hours
row,Compound,Effect (on growth of Agrobacterium)
1,[Cl][Al]([Cl])[Cl] [Aluminum Chloride],Growth
2,[Cl][Cd][Cl] [Cadmium Chloride],Slow Growth
3,[Cl][Cr][Cl] [Chromium (II) Chloride],Growth
4,[Cl][Ni][Cl] [Nickel Chloride],Growth
5,[Na+].[Na+].[O]=[Mo](=[O])([O-])[O-] [Sodium Molybdate],Growth
6,[Na+].[Na+].[O]=[W](=[O])([O-])[O-] [Sodium Tungstate],Growth
7,[Cl-].[Cl-].[Zn+2] [Zinc Chloride],Growth
8,Lead Nitrate,Growth
9,Manganese Chloride,Slow Growth

# Tested on: immature embryos of genotype (H99×Pa 91)A188
# Experiment: Transformation efficiency of corn with different growth inhibiting agents during co-culture
# Format: cell-based
# Settings: 50 mg/L in co-culture medium, three days; OD 4.0
# Description: b) Biological assay (leaf bleach assay). Leaf samples (a leaf punch) from approximately 2-week-old seedlings were placed in wells of 24-well cell culture clusters (Costar Corporation, Cambridge, Mass.). Each well was filled with 0.5 ml aqueous solution composed of 300 mg/L paromomycin (Sigma) and 100 mg/L Benlate (a fungicide made by Du Pont), 100 mg/IL Benlate alone was used as a control. Three leaf samples from the same leaf of each plant were placed in two wells containing paromomycin plus Benlate and one well containing Benlate alone, respectively. Leaf samples from non-transformed plants were used as negative controls. The samples were vacuum-infiltrated in a dessicator using an in-house vacuum system for 5 min and then the clusters were sealed tightly with parafilm before being placed under light (140 μMol m-2s-1). The results were determined after 60 hours.
# Immature embryos of genotype (H99×Pa 91)A188 were isolated as described. […] The Agrobacterium strain was pre-induced as described. The inoculation was performed using a concentration of A660 OD 4.0 for 15 minutes as described. Post inoculation, Agrobacterium suspension was removed and embryos were placed on different semi-solid co-culture media supplemented with various bacteriocidal compounds. All the tissues were incubated for three days in the dark. The transformation protocol followed was as described previously (corn IE transformation) except that the 1st selection with 50 mg/L Paromomycin was replaced with 25 mg/L Paromomycin for 2 weeks and 50 mg/L Paromomycin for 2 additional weeks. Transformation efficiency was calculated based on the number of embryos producing nptII positive plants as determined by a leaf bleach assay as described earlier. Three weeks after the transformation, the quality and growth characteristics of IE-derived callus co-cultured in the presence of different growth inhibiting agents.
row,Compound,% Transformation
1,"CC1(C)S[C@@H]2[C@H](NC(=O)C(C(=O)O)c3ccccc3)C(=O)N2[C@H]1C(=O)O (some centres unmarked) [Carbenicillin, reference compound]",14.3%
